Read-outs that look alike come from different tables or passages of the source. Each block holds one compound with its values, some of them ahead of it.
Columns and labels:
[1] = parameters: method as in number not given; conditions: ref number not given, cited from earlier work; for pGa^3+: under the same conditions (pH 7.4, C L = 10 μM, C Ga = 1 μM)
[2] = Stability of HBCD aqueous stock solution (NMR, ESI-MS, UV–vis); assay type: physicochemical; conditions: room temperature, up to one month
Description: HBCD stock solutions were prepared by dissolving a weighed amount of ligand directly in Milli-Q water to achieve a concentration of approximately 1 mM. The solubility of HBCD in water depends on pH: minimal values occur at acidic pH, where the noncharged form predominates. To enhance solubility, small amount of NaOH were added, and the solution was sonicated for 15 min. The stability of HBCD at room temperature was confirmed by NMR, ESI-MS and UV–vis measurements conducted over the course of up to one month following solution preparation.

[3] = Thermodynamic stability of Ga^3+-HBCD (UV–vis and 1H NMR in-batch titrations; pGa^3+ calculation); assay type: physicochemical; conditions: for pGa^3+ (−log[Ga^3+]free): calculated at pH 7.4, C L = 10 μM and C Ga = 1 μM
Description: The thermodynamic stability of Ga^3+-HBCD was evaluated by UV–vis and ^1H NMR spectroscopies. Due to the slow complexation kinetics observed at highly acidic pH values, in-batch titrations were conducted, and heating was applied to speed up the attainment of equilibrium under these conditions. Representative pH-dependent ^1H NMR and UV–vis spectra are reported in Figures S12 and S13, respectively. The overall stability constants (log β) of Ga^3+-HBCD are provided in Table while the corresponding distribution diagram is shown in Figure in comparison with HBED.
To compare the chelating abilities of HBCD and HBED, the pGa^3+ values (pGa^3+ = −log[Ga^3+]free) were calculated under physiological conditions (pH = 7.4, C L = 10 μM and C Ga = 1 μM). This parameter accounts for both ligand basicity and metal-ion hydrolysis, with higher pGa^3+ values indicating greater complex stability under the given conditions.
(§1) UV–vis pH-spectrophotometric titrations were conducted using the in-cell method for the free HBCD and the out-of-cell method for the Ga^3+-HBCD mixture at T = 25 °C and I = 0.15 M NaCl. In the latter case, stock solutions of HBCD and Ga^3+ were combined in separate vials at 1:1 metal-to-ligand ratio (C Ga = C L = 20–50 μM). Small volumes (μL) of HCl and/or NaOH were used to adjust the pH. pH measurements were performed using a calibrated pH meter (Mettler-Toledo). The vials were sealed and heated to T = 80 °C to ensure complete complexation, then cooled to ambient temperature. The electronic spectra were recorded, and the equilibrium was considered to be reached when no further changes in either the pH or the electronic spectra were observed.
(§2) ^1H NMR spectra of free HBCD or Ga^3+-HBCD mixtures (C L = C Ga = 1 mM) were recorded at T = 25 °C and I = 0.15 M NaCl, in D2O, at different pH. The pH was adjusted following the procedure used in the UV–vis experiments. To account for isotopic effects, 0.41 log units were added to the measured pH values. Under highly acidic conditions, the pH was calculated from the HCl concentration using the formula pH = −log[C(H^+)]. […] Prolonged heating was applied to accelerate the complexation reaction. The thermodynamic data were elaborated with HypSpec, HypNMR or as described in previous publications. , Hydrolysis constants and solubility products of Ga^3+ in aqueous ionic media were taken from ref .

[4] = Formation kinetics of Ga^3+-HBCD (1H NMR and UV–vis); assay type: physicochemical
Description: Before the thermodynamic investigation, the formation kinetics of the Ga^3+-HBCD complexes were qualitatively assessed using ^1H NMR and UV–vis spectroscopies at different pH and concentrations to determine the time needed to reach equilibrium. Understanding the equilibration conditions is essential for obtaining accurate thermodynamic data and for gaining an initial insight into the binding capacity of the new chelator.
The formation kinetics of the Ga^3+-HBCD complexes was evaluated at room temperature using ^1H NMR and UV–vis spectroscopies. Equimolar amounts of Ga^3+ and HBCD solutions (final concentrations: 1 mM for ^1H NMR, 50 μM for UV–vis) in buffered media (e.g., pH 2 HCl 10^–2 M, pH 4.5 acetic/acetate buffer). The complexation reaction was tracked by monitoring the increase in peaks characteristic of Ga^3+-ligand complex formation over time.

[5] = Acidity constants of HBCD by pH-dependent 1H NMR titration; assay type: physicochemical; conditions: T = 25 °C, I = 0.15 M NaCl
Text: The assignment of the other four protonation constants (pK a,3, pK a,4, pK a,5 and pK a,6) is extremely challenging. […] According to NMR data of HBCD, pK a,3 can reasonably be assigned to one of the tertiary ammine. Once this dissociation occurs, the nitrogen atom can form a hydrogen bond with the phenolic group or with the other amine group. The next dissociation (pK a,4) can be attributed to the other phenolic moiety that can be then involved in the formation of the hydrogen bond with the protonated ammine. The last two dissociations can tentatively be attributed to the second phenolic group (pK a,5) and the tertiary amine (pK a,6).
as §2

[6] = Acidity constants of HBCD by UV–vis pH-spectrophotometric titration; assay type: physicochemical; conditions: T = 25 °C, I = 0.15 M NaCl
Description: As the pH increases, the intensity of the band at 275 nm decreases, while two new bands emerge at 241 and 298 nm, with their absorbance progressively increasing. […] These pH-dependent changes in the electronic spectra allowed the determination of the acidity constants (pK a) of HBCD, which are summarized in Table .
as §1

[7] = parameters: method as in number not given; conditions: for in vivo imaging; ref number not given; cited from earlier work
[8] = parameters: method as in number not given; conditions: I = 0.10 M KCl, T = 25 °C; literature data, ref number not given; cited from earlier work

Compound: O=C(O)CN1CCN(CC(=O)O)CCN(CC(=O)O)CCN(CC(=O)O)CC1 [DOTA, 1,4,7,10-tetraazacyclododecane-1,4,7,10-tetraacetic acid]
- pGa^3+ [1]: 18.5

- stability of HBCD in solution [2]: confirmed
- log β, Ga^3+ + H^+ + L^4– ⇌ [GaHL] ([3]; T = 25 °C, I = 0.15 M NaCl): 41.2 ± 0.1
- log β, Ga^3+ + L^4– ⇌ [GaL]^− ([3]; T = 25 °C, I = 0.15 M NaCl): 39.2 ± 0.1
- pGa^3+ (−log[Ga^3+]free) [3]: 27.0
- pK a,1 (H6L^2+ ⇌ H^+ + H5L^+) [5]: 1.1 ± 0.2
- pK a,2 (H5L^+ ⇌ H^+ + H4L) [5]: 3.1 ± 0.3
- pK a,3 (H4L ⇌ H^+ + H3L^–) [5]: 4.9 ± 0.4
- pK a,4 (H3L^– ⇌ H^+ + H2L^2–) [5]: 9.7 ± 0.3
- pK a,5 (H2L^2– ⇌ H^+ + HL^3–) [5]: 12.2 ± 0.1
- pK a,6 (HL^3– ⇌ H^+ + L^4–) [5]: 13.5 ± 0.2
- pK a,3 (H4L ⇌ H^+ + H3L^–) ([6]; UV–vis): 5.20 ± 0.06
- pK a,4 (H3L^– ⇌ H^+ + H2L^2–) ([6]; UV–vis): 9.42 ± 0.04
- pK a,5 (H2L^2– ⇌ H^+ + HL^3–) ([6]; UV–vis): 11.94 ± 0.03
- pK a,6 (HL^3– ⇌ H^+ + L^4–) ([6]; UV–vis): 13.2 ± 0.2
Compound: O=C(O)CN(Cc1ccccc1O)[C@@H]1CCCC[C@H]1N(CC(=O)O)Cc1ccccc1O [HBCD, N,N′-di(2-hydroxybenzyl)-(1,2-cyclohexanediamine)-N,N′-diacetic acid]
- Ga^3+ complex formation ([4]; pH ∼ 2, room temperature, after 24 h, 1H NMR): no complex formation was observed
- time to reach completion of Ga^3+ complexation ([4]; pH ∼ 4.5, 50 μM, UV–vis): approximately 1 h
- Ga^3+ complexation rate ([4]; pH ∼ 4.5, mM metal and ligand concentrations, 1H NMR): nearly instantaneous
- average value of pK a,1 and pK a,2 ([6]; calculated from UV–vis data): d An average value of pK a,1 and pK a,2 equal to 1.7 ± 0.2 was calculated from UV–vis data.

Compound: O=C(O)CN(Cc1cccc(C(=O)O)n1)Cc1cccc(C(=O)O)n1 [dpaa]
- serum stability of the [^68Ga]Ga^3+ complex [7]: poor

- pGa^3+ (−log[Ga^3+]free) [3]: 29.6
Compound: O=C(O)CN(CCN(CC(=O)O)Cc1ccccc1O)Cc1ccccc1O [HBED, N,N′-di(2-hydroxybenzyl)ethylenediamine-N,N′-diacetic acid]
- pK a,2 (H5L^+ ⇌ H^+ + H4L) [8]: 2.24
- pK a,3 (H4L ⇌ H^+ + H3L^–) [8]: 4.40
- pK a,4 (H3L^– ⇌ H^+ + H2L^2–) [8]: 8.34
- pK a,5 (H2L^2– ⇌ H^+ + HL^3–) [8]: 11.03
- pK a,6 (HL^3– ⇌ H^+ + L^4–) [8]: 12.64
- log β, Ga^3+ + H^+ + L^4– ⇌ [GaHL] ([1]; literature data): 40.81
- log β, Ga^3+ + L^4– ⇌ [GaL]^− ([1]; literature data): 38.51

Compound: transferrin: iron-transporting protein, one of the primary in vivo competitors for Ga^3+
- pGa^3+ [1]: 20.3
